Data on 25 molecules can be found in ChEMBL document CHEMBL5512601, “Small-molecule inhibitors targeting apoptosis signal-regulated kinase 1” (Eur J Med Chem, 2023).

The target of data set [1] is T1, Mitogen-activated protein kinase kinase kinase 5 (Homo sapiens, UniProt Q99683).
T1 sequence (Q99683 whole entry): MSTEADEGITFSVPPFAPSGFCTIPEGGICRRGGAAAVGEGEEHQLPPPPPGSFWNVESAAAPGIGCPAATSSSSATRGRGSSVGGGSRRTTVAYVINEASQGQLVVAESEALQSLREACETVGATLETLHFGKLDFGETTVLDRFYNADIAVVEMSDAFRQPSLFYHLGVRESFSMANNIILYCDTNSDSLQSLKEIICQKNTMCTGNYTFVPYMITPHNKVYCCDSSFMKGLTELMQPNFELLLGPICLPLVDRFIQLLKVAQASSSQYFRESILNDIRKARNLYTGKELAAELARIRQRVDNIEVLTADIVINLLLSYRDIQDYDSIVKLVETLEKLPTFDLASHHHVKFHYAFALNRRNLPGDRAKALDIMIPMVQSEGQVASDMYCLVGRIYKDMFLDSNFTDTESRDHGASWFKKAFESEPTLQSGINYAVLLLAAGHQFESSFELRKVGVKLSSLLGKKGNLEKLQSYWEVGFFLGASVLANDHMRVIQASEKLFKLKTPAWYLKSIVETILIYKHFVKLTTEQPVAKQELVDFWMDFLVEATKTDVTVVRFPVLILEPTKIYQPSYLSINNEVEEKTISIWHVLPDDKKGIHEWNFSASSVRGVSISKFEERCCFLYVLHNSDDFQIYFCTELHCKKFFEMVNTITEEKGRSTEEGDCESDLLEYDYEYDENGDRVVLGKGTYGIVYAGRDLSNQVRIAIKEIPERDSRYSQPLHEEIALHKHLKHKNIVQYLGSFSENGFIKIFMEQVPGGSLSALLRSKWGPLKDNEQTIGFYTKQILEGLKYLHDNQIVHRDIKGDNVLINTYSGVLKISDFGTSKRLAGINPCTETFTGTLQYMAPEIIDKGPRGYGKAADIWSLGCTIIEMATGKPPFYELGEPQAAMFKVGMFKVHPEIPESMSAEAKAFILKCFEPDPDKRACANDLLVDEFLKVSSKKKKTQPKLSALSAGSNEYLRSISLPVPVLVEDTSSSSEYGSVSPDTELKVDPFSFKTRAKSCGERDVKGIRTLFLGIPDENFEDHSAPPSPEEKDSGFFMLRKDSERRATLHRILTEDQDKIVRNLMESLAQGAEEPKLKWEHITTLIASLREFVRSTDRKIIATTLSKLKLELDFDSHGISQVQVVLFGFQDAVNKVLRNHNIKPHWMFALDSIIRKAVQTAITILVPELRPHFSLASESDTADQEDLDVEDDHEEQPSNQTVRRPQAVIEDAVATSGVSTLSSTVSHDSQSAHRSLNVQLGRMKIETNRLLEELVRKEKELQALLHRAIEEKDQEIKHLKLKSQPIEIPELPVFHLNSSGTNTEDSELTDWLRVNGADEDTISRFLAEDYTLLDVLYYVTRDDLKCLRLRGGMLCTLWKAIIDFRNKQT
The data set is described as follows: Inhibition of full length GST-tagged recombinant human ASK1 using MBP as substrate incubated for 20 mins by cell based assay.

Data set [2] addresses T1, Mitogen-activated protein kinase kinase kinase 5. The experiment in a line: Inhibition of full length GST-tagged recombinant human ASK1 using MBP as substrate incubated for 20 mins.
For data set [3], the species on record is Rattus norvegicus. The experiment in a line: Antifibrotic activity CDHFD-NaNO2 rat model. It is filed as functional.
For data set [4], the species on record is Rattus norvegicus. The data set is described as follows: Antifibrotic activity CDHFD-NaNO2 rat model assessed as effect on hydroxyproline level. In kind it is functional.
Data set [5] is described as follows: Oral bioavailability in Sprague-Dawley rat at 1 mg/kg by LC-MS/MS analysis. In kind it is ADME, organism-based. The settings on record: in vivo.
Data set [6] deals with T1, Mitogen-activated protein kinase kinase kinase 5. The experiment in a line: Inhibition of human ASK1 using STK-substrate biotin as substrate by TR-FRET assay.
The target is the same in data set [7]. The data set is described as follows: Inhibition of N-terminal his-tagged human ASK1 (649 to 946 residues) expressed in Escherichia coli using [gamma-32p]ATP as substrate by liquid scintillation counting analysis.
The target is the same in data set [8]. The data set is described as follows: Inhibition of human ASK1.
Data set [9] in a line: Toxicity in C57BL/6J mouse harboring SOD1 mutant assessed as animal survival (reference value: 1.06%). The settings on record: in vivo, read-out: Activity.
Data set [10] is described as follows: Unbound brain-to-plasma concentration ratio in rat at 1 mg/kg, iv by LC-MS/MS analysis. It is filed as ADME, organism-based. Conditions: brain and plasma, read-out: K(p,uu,brain).
For data set [11], the target named is T1, Mitogen-activated protein kinase kinase kinase 5. The data set is described as follows: Inhibition of ASK1 (unknown origin) incubated for 2 hrs.
For data set [12] the target is unchanged. The data set is described as follows: Inhibition of ASK1 phosphorylation in HEK293T cells incubated for 1 hr. It is filed as cell-based.
For data set [13] the target is unchanged. The experiment in a line: Inhibition of human recombinant ASK1 by HTRF assay.
A short description of data set [14]: Cmax in rat 5 mg/kg, po measured upto 24 hrs by LC-MS/MS analysis. It is filed as ADME, organism-based. The settings on record: in vivo.
Data set [15] is described as follows: Half life in rat 5 mg/kg, po measured upto 24 hrs by LC-MS/MS analysis. The settings on record: in vivo. It is filed as ADME, organism-based.
Data set [16] addresses T1, Mitogen-activated protein kinase kinase kinase 5. The experiment in a line: Inhibition of ASK1 (unknown origin) incubated for 0.5 to 5 hrs by TR-FRET assay.
A short description of data set [17]: AUC (0 to t) in rat 5 mg/kg, po measured upto 24 hrs by LC-MS/MS analysis. It is filed as ADME, organism-based. The settings on record: in vivo.
For data set [18], the target named is 3-phosphoinositide-dependent protein kinase 1 (Homo sapiens) (UniProt O15530). The experiment in a line: Inhibition of PDK1 (unknown origin) at 10 uM relative to control.
For data set [19], the target named is T1, Mitogen-activated protein kinase kinase kinase 5. The experiment in a line: Inhibition of ASK1 (unknown origin).
Data set [20] in a line: Apparent permeability of compound across apical to basolateral side in human Caco2 cells. It is filed as ADME, cell-based. Conditions: Caco-2.
A short description of data set [21]: Half life in Sprague-Dawley rat at 1 mg/kg, iv by LC-MS/MS analysis. In kind it is ADME, organism-based. Conditions: in vivo.
Data set [22] is described as follows: Efflux ratio of apparent permeability across basolateral to apical side over apical to basolateral side in human Caco2 cells by LC-MS/MS analysis. In kind it is ADME, cell-based. Conditions: Caco-2.
For data set [23], the target named is T1, Mitogen-activated protein kinase kinase kinase 5. The experiment in a line: Inhibition of ASK1 in HEK293 cells. It is filed as cell-based.

SMILES strings stand for the structures.

Chain of 3-phosphoinositide-dependent protein kinase 1 (Homo sapiens) (O15530 whole entry, looked up): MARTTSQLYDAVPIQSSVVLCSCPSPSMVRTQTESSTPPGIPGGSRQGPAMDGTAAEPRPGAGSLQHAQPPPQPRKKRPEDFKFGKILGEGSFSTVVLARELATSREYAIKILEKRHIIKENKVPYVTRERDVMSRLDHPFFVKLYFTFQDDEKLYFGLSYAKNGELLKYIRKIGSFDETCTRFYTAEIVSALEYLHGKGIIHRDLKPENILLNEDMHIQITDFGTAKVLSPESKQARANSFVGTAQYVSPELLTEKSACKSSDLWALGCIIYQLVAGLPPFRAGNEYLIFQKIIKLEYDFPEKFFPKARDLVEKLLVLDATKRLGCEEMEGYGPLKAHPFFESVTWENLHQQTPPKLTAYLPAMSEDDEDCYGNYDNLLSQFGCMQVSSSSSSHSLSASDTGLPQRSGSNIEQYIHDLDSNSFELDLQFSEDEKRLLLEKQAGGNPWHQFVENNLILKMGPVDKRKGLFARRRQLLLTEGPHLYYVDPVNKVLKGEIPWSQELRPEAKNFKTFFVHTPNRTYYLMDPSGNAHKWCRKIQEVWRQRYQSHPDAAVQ

Consider `Cc1cc(F)c(C(=O)Nc2cccc(-c3nnc4n3CCCC4)n2)cc1-n1nnc(C2CC2)n1`, for which the half-maximal inhibitory concentration (IC50) in [1] is greater than 100 nM; in [2], greater than 1000 nM.
In the case of `Cc1cc(F)c(C(=O)Nc2cccc(-c3nncn3C(C)C)n2)cc1-n1cnc(C2CC2)c1` [SELONSERTIB], the Activity in the data set filed under Rattus norvegicus [3] came out at 28%; in the data set listed under Rattus norvegicus [4] it was 6%. This molecule gave a bioavailability in data set [5] of 75%.
For `Cc1cc(F)c(C(=O)Nc2cccc(-c3nnc4n3CCCC4)n2)cc1-n1cc(C2CC2)nn1`, the IC50 in data set [1] is greater than 100 nM.
In turn, `Cc1ccc(NC(=O)Nc2cccc(-c3nncn3C(C)C)n2)c(F)c1` showed an EC50 in [6] of no more than 500 nM.
Take `C=C(C)[C@@H]1CC[C@]2(C(=O)On3nnc4ccccc43)CC[C@]3(C)[C@H](C[C@@H](O)[C@@H]4[C@@]5(C)C(CC(=O)OCC)OC(C)(C)C5CC[C@]43C)[C@@H]12` (stereo partly specified): in data set [7], half-maximal inhibition (IC50) was put at 5.08 nM.
As to `COc1cc2nncc(Oc3ccc(NC(=O)c4cn(C(C)C)c5c(c4=O)CCC=C5)cc3)c2cc1OC`, the IC50 in data set [8] was found to be 6 nM. Besides, the survival in [9] turned out to be 1.08%.
As to `C[C@H]1CCCOc2ncccc2C(=O)Nc2cccc(n2)-c2nncn21`, the Kp uu in data set [10] is no less than 0.1. Also, the 50% inhibitory concentration (IC50) in data set [11] is less than 100 nM; in data set [12] it was no more than 1000 nM.
For `Cc1cc(F)c(C(=O)Nc2cccc(-c3nnc4n3CCCC4)n2)cc1-n1cnc(C2CC2)n1`, the IC50 in [1] is no more than 100 nM.
For the molecule `Cc1ccc(N(C)C(=O)Nc2cccc(-c3nncn3C(C)C)n2)c(F)c1`, the concentration for a half-maximal effect (EC50) in data set [6] is no more than 5000 nM.
On to `C=C(C)[C@@H]1CC[C@]2(C(=O)O)CC[C@]3(C)[C@H](C[C@@H](O)[C@@H]4[C@@](C)([C@H](O)CC(=O)O)[C@H](C(=C)C)CC[C@]43C)[C@@H]12`, for which inhibition in data set [7] was half-maximal at 407 nM (IC50).
Regarding `CC(C)n1cnnc1-c1cccc(NC(=S)Nc2ccccn2)n1`, the half-inhibitory concentration (IC50) in data set [13] was found to be 50 nM. This molecule showed an EC50 in data set [6] of no more than 500 nM.
In the case of `C=C(C)[C@@H]1CC[C@]2(C(=O)N(CCOCCOn3nnc4ccccc43)C(=O)OC(C)(C)C)CC[C@]3(C)[C@H](C[C@H]4OC(=O)C[C@@H](O)[C@]5(C)[C@@H]4[C@@]3(C)CC[C@H]5C(=C)C)[C@@H]12`, the IC50 in [7] was 2.02 nM.
In the case of `Cc1cc2c(cc1-n1cnc(C3CC3)c1)C(=O)N(c1cccc(-c3nncn3C(C)C)n1)C2`, the peak level in data set [14] (Cmax) was 8190 ng/mL. In data set [15], this molecule showed a half-life of 78 min. Further, inhibition in data set [16] was half-maximal at 3.9 nM (IC50). In data set [17], this molecule yielded an exposure AUC(0-t) at 24 h of 19200 ng·h/mL.
On to `Cn1nc(C(F)(F)F)c2cc(C(=O)Nc3cccc(-c4nncn4C4CC4)n3)c(=O)[nH]c21`, for which the inhibition in data set [18] came to 42.9%. This molecule yielded an IC50 in [19] of 2660 nM.
On to `C[C@H]1CCCOc2ncc(-c3ccncc3)cc2C(=O)Nc2cccc(n2)-c2nncn21`, for which the Kp uu in data set [10] is no less than 0.1. Moreover, the IC50 in [11] and in [12] was no more than 100 nM each time.
For `CC(C)n1cnnc1-c1cccc(NC(=O)c2cc(-n3cnc(C4CC4)c3)ccn2)c1`, the inhibition in data set [18] amounted to 0.04%.
`Cc1ccc(C(=O)Nc2cccc(-c3nncn3C(C)C)n2)cc1-n1cnc(C2CC2)c1`: in data set [20], the Papp A→B came to 0.26 ×10⁻⁶ cm/s. For the same molecule, the half-life in [21] is 72 min. For the same molecule, in data set [22], the efflux ratio amounted to 15.4. In addition, in data set [5], the bioavailability stood at 50%. The 50% effective concentration (EC50) in [23] is 18 nM.
`CC(C)n1cnnc1-c1cccc(NC(=O)c2cccc(-n3cnc(C4CC4)c3)c2)n1`: the Papp A→B in [20] came out at 3.1 ×10⁻⁶ cm/s. The half-life in data set [21] is 35.4 min. Besides, in data set [5], the bioavailability was 11%. Also, in data set [23], the EC50 is 3.4 nM.
Turning to `C=C(C)[C@@H]1CC[C@]2(C(=O)O)CC[C@]3(C)[C@H](C[C@@H](O)[C@@H]4[C@@]5(C)C(CC(=O)O)OC(C)(C)C5CC[C@]43C)[C@@H]12` (stereo partly specified), the midpoint of inhibition in data set [7], the IC50, lay at 449 nM.
Consider `Cc1ccc(-n2ccn(-c3cccc(-c4nncn4C(C)C)n3)c2=O)c(F)c1`, for which the IC50 in data set [13] came to 50 nM. The same molecule registered a half-maximal effective concentration (EC50) in data set [6] of no more than 500 nM.
On to `Cc1cc(F)c(C(=O)Nc2cccc(-c3nnc4n3CCCC4)n2)cc1-n1cnc(C2CC2)c1`, for which the IC50 in [1] was no more than 100 nM; in data set [16] it was 18 nM.
Take `C=C(C)[C@@H]1CC[C@]2(C(=O)O)CC[C@]3(C)[C@H](C[C@H]4OC(=O)C[C@@H](O)[C@]5(C)[C@@H]4[C@@]3(C)CC[C@H]5C(=C)C)[C@@H]12`: the half-inhibitory concentration (IC50) in data set [7] was determined as 370 nM.
Take `Cc1cc2c(cc1-n1cnc(C3CC3)c1)C(=O)N(c1cccc(-c3nncn3C(C)C)n1)C2C` (stereo unspecified): the peak level in [14] (Cmax) was 2270 ng/mL. For the same molecule, in [15], the half-life was 174 min. Also, in data set [17], the AUC(0-t) at 24 h was found to be 9430 ng·h/mL.
With `C[C@H](CO)n1cnnc1-c1cccc(N2CCN(c3ccc(C(=O)N4CCCCC4)cn3)C2=O)n1`, the IC50 in data set [13] is no more than 50 nM. In addition, the concentration giving a half-maximal response (EC50) in data set [6] is no more than 50 nM.
Take `COc1cc2nccc(Oc3ccc(NC(=O)c4cn(C(C)C)c5c(c4=O)CCC=C5)cc3)c2cc1OC`: in data set [8], the IC50 is 6 nM. Further, in data set [9], the survival was found to be 1.09%.
